The text below walks through data of ChEMBL document CHEMBL1201862, “PubChem BioAssay data set” (2004).

One test has as its target T1, Coagulation factor XII (Homo sapiens, UniProt P00748).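 Note: activated factor XIIa alpha cleaving a fluorogenic AMC peptide substrate; inhibitor potency from loss of enzyme activity.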
T1 sequence (P00748 whole entry): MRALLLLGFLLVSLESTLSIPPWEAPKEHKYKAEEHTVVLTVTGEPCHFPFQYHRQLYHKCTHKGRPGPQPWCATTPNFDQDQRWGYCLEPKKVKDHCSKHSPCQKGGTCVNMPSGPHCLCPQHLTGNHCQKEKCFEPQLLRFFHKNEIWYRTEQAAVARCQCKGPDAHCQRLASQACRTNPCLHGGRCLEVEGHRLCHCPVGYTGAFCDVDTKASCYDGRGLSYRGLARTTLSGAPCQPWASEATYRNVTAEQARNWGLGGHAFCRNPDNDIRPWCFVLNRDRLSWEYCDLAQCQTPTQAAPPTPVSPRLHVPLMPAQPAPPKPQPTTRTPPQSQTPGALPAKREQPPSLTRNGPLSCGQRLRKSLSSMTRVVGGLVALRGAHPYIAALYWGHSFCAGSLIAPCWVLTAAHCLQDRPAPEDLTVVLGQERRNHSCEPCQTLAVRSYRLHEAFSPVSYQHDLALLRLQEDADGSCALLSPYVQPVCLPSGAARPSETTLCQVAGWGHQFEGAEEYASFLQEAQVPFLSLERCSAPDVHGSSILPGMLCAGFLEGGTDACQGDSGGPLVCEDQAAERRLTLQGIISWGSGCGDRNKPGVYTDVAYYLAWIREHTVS
Format: functional.

Test [1] is described as follows: non-specific 3'UTR reporter inhibition in Clone20-Shn3RL – cell-based, Renilla luciferase, cherry-picked, counter-screen for Shn3 inhibitor project, dose response (AID 624133). The format is functional.
The nature of test [2]: loss of viability in HepG2 cells – cell-based, CellTiter-Glo, cherry-picked, cytotoxicity control for Shn3 inhibitor project, dose response (AID 624134). Format: functional.
A further test deals with INS1. As to the kind of experiment: INS-1E survival protection against cytokine death – cell-based, luminescence, retest, dose response (AID 449756).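 Note: cell death triggered by IL-1 beta plus TNF-alpha plus IFN-gamma mixture; protective hits raise ATP signal compared with cytokine alone wells.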 Format: functional. The following applies: Rattus norvegicus.
Test [3] is described as follows: reduction of Shn3 3'UTR-driven luciferase in osteoblasts – cell-based, Clone20 osteoblasts, firefly luciferase, cherry-picked, dose response (AID 624132).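 Note: firefly luciferase luminescence from reporter carrying the Shn3 3'UTR in osteoblasts.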 Format: functional.
Test [4] has as its target DNA dC->dU-editing enzyme APOBEC-3G (Homo sapiens, UniProt Q9HC16). Format: functional.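 Note: Dose-response counterscreen measuring inhibition of APOBEC3G DNA deaminase activity, run while confirming APOBEC3A inhibitors.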
Test [5] addresses DNA dC->dU-editing enzyme APOBEC-3A (Homo sapiens, UniProt P31941). As to the kind of experiment: Dose Response confirmation of small molecule APOBEC3A DNA Deaminase Inhibitors via a fluorescence-based single-stranded DNA deaminase assay. [Related pubchem assays (depositor defined):AID493011, AID493024]. Format: functional.
Test [6] is described as follows: Trypanosoma cruzi growth suppression in host cells – NIH3T3 host cells, beta-gal luminescence, confirmation (AID 2044).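 Note: intracellular parasites grown in NIH/3T3 mouse fibroblasts as host cells; luminescent beta-galactosidase reporter signal from transgenic T. cruzi replicating inside host cells; inhibitors lower the luminescence signal.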 Format: functional, cell-based.
A short description of test [7]: NIH3T3 cell viability loss – ATP luminescence, mouse fibroblasts, counter-screen, dose response (AID 2010).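 Note: cells exposed to compound for about 90 hours before reading.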 The format is functional, cell-based.
Another test concerns the target T2, Aminopeptidase N (Plasmodium falciparum FcB1/Columbia, UniProt O96935).
T2 sequence (O96935 whole entry): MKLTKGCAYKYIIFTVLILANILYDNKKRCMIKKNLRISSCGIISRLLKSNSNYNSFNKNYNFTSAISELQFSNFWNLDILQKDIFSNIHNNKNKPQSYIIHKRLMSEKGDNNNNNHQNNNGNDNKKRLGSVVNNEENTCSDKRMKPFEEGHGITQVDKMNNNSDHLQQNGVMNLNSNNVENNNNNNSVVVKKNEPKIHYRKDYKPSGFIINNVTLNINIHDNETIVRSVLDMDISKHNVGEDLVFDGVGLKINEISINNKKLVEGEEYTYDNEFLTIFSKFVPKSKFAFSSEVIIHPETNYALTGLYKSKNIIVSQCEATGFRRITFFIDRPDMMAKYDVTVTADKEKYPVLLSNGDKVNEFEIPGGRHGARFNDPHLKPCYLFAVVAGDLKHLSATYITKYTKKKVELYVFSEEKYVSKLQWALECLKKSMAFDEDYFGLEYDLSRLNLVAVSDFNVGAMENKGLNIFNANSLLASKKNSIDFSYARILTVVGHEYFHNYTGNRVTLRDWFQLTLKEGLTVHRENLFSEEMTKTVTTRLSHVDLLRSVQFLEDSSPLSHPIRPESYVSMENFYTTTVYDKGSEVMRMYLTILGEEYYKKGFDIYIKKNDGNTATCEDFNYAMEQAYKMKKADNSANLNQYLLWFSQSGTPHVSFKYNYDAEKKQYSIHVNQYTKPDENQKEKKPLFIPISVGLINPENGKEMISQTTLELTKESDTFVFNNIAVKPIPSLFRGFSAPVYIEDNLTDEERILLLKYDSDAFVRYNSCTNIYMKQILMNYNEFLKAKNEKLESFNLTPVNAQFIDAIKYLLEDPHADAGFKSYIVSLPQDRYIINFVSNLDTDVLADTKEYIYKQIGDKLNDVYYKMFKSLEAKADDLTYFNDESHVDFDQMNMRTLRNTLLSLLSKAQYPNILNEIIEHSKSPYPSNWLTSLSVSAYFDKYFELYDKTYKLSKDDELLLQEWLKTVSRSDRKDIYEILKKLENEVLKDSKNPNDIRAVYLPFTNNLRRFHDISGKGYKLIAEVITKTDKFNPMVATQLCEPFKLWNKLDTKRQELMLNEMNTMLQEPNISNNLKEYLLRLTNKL
In words: malaria alanyl aminopeptidase activity blockers – biochemical, fluorogenic H-Leu-NHMec substrate, 1536-well (AID 1445). Details: species or system Plasmodium falciparum 3D7, 3D7.

The next test deals with T3, Protein RecA (Mycobacterium tuberculosis, UniProt P9WHJ3).
T3 sequence (P9WHJ3 whole entry): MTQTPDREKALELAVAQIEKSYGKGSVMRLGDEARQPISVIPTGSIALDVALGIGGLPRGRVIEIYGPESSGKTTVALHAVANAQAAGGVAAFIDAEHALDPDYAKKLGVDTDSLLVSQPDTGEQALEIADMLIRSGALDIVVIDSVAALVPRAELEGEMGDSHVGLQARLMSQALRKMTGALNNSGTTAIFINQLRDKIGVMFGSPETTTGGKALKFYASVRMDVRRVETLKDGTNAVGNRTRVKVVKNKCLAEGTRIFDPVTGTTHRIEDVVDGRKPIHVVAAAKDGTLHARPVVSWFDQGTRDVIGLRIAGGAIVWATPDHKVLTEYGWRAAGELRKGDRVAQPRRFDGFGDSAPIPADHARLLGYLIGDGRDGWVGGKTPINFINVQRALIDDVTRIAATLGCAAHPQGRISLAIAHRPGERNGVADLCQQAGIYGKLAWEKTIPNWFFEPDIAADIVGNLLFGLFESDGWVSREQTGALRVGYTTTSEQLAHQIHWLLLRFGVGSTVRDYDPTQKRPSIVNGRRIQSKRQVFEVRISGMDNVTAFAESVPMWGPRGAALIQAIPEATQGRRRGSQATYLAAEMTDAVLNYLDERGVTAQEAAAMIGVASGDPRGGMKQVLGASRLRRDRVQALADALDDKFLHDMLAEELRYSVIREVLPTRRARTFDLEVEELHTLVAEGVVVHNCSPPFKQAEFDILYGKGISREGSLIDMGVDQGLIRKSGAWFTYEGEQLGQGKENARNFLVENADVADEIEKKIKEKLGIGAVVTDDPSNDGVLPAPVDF
As to the kind of experiment: Fluorescence Cell-Free Homogeneous Dose Retest to Identify Inhibitors of RecA-Intein Splicing Activity. [Related pubchem assays (depositor defined):AID2097, AID2223, AID489010, AID492950]. Format: functional.

The target of test [8] is T4, Histone-lysine N-methyltransferase NSD2 (Homo sapiens, UniProt O96028).
T4 sequence (O96028 whole entry): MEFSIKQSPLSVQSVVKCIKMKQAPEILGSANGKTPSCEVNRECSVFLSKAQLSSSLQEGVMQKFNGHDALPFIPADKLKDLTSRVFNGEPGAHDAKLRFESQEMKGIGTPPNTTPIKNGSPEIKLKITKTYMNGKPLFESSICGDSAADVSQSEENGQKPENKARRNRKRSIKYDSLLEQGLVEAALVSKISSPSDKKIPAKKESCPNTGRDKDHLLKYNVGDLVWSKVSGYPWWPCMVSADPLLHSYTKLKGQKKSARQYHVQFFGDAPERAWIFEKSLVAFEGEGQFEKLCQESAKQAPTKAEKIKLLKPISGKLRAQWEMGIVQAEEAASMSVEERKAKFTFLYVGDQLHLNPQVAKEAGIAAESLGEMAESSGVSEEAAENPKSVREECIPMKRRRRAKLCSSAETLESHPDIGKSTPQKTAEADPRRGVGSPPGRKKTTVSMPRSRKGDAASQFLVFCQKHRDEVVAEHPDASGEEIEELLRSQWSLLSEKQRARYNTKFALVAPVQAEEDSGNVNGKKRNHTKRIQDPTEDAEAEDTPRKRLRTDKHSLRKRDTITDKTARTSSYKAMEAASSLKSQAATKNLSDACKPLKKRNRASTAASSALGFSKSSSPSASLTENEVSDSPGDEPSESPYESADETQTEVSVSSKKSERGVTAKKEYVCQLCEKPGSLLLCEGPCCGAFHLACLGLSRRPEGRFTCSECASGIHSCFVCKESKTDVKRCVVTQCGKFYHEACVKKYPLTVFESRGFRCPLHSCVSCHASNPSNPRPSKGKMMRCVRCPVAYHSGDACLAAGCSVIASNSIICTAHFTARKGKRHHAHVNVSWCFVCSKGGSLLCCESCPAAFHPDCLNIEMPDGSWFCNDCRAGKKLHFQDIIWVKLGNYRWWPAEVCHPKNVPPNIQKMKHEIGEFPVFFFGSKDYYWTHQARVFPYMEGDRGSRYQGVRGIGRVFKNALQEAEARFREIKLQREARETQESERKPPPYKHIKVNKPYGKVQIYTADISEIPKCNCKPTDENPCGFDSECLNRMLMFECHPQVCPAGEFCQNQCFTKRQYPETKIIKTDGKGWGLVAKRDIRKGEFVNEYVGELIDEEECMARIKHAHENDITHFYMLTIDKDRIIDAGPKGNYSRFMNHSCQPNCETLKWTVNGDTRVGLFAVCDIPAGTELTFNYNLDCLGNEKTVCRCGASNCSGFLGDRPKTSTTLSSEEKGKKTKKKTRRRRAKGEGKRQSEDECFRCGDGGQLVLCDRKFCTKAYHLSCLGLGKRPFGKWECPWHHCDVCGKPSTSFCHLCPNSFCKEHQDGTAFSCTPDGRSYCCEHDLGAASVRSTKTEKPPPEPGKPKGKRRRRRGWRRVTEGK
Format: biochemical.

Active and inactive are the calls of the source. A value given as a limit tells only on which side of the number the result lay.

DNA dC->dU-editing enzyme APOBEC-3G, sequence (Q9HC16 whole entry): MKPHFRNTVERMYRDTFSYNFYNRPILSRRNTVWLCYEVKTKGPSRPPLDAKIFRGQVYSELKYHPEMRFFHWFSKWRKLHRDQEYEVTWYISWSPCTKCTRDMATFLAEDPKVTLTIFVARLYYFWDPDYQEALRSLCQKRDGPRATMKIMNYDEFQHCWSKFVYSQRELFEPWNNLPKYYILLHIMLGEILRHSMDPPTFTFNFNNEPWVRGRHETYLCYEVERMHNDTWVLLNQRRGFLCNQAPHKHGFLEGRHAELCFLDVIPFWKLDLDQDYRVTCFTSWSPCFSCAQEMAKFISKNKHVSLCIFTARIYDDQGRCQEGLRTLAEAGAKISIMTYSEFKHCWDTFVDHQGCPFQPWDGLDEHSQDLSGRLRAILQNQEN
DNA dC->dU-editing enzyme APOBEC-3A, sequence (P31941 whole entry): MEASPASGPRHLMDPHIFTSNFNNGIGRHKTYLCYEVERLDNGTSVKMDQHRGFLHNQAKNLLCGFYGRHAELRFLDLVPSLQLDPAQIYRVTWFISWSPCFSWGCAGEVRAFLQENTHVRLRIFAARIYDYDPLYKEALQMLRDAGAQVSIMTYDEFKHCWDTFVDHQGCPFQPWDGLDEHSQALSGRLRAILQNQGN

Take `Cc1cc(NC(=O)COC(=O)c2cccc(S(=O)(=O)N(C)C3CCCCC3)c2)no1`: on Coagulation factor XII, the IC50 is > 50 µM (inactive).

Turning to `O=C(Nc1ccc(F)cc1)Nc1cc(OCC(F)(F)F)cc(OCC(F)(F)F)c1`, the half-maximal activity concentration (AC50) in test [1] was 4.59 µM (active); in test [2] it was 4.1 µM (active); in the test with INS1, 2.01 µM (active); in test [3], 2.46 µM (active). Also, the IC50 at Coagulation factor XII was > 50 µM (inactive).

In the case of `C[n+]1cccc(C(=O)N/N=C/c2ccc3c(c2)OCO3)c1`, the half-maximal inhibitory concentration (IC50) is 8.99 µM (active) in test [4] and 3.15 µM (active) in test [5].

Take `CCN1CCN(c2ccc(S(=O)(=O)N3CCCCC3)cc2NC(=O)c2cccc(C(F)(F)F)c2)CC1`: the half-maximal inhibitory concentration (IC50) in test [4] is 13.2 µM (active); in test [5], 7.71 µM (active). Besides, the EC50 is 1.09 µM (active) in test [6] and > 30 µM (not active) in test [7].

Take `COC(=O)C(C)N1C(=O)S/C(=C\c2ccc(-c3ccc(C(=O)O)cc3C)o2)C1=O` (stereo unspecified): the IC50 in test [4] was 4.97 µM (active); in [5], 5.66 µM (active).

`CC[n+]1c(C)n(Cc2ccccc2)c2ccc(C(=O)OC)cc21`: the IC50 in [4] is 3.62 µM (active); in test [5], 2.88 µM (active).

As to `C=CCNC(=O)CN(c1ccc(F)cc1)S(=O)(=O)c1ccc(OC)cc1`, the IC50 on Coagulation factor XII is > 50 µM (inactive).

Regarding `C=CCn1c(NC(=O)c2ccc(Br)o2)c(S(=O)(=O)c2ccccc2)c2nc3ccccc3nc21`, the half-maximal inhibitory concentration (IC50) on Aminopeptidase N is 17.4 µM (active). The concentration giving a half-maximal response (EC50) on Protein RecA is > 380 µM (inconclusive). The half-maximal activity concentration (AC50) in test [8] is 10.6 µM (active).

With `Cc1n[nH]c(C)c1CCC(=O)N/N=C/c1cccs1`, the IC50 on Coagulation factor XII was > 50 µM (inactive).

As to `O=C(Nc1ccc(NC(=O)c2ccc(Cl)cc2Cl)cc1)c1cccs1`, the results for the IC50 in test [4] and in test [5] were 11.8 µM (active) and 10.6 µM (active), respectively.

With `Nn1c(Cc2cccc3ccccc23)nnc1SCCOc1ccc(F)cc1`, on Coagulation factor XII, the IC50 is > 50 µM (inactive).

Take `CCOC(=O)C1CCN(S(=O)(=O)c2ccc3c(c2)CC(=O)N3C)CC1`: the concentration for half-maximal inhibition (IC50) in [4] was 4 µM (active); in test [5] it was 2.81 µM (active).
